According to US20170326232A1, “INTRATUMORAL ADMINISTRATION OF PARTICLES CONTAINING A TOLL-LIKE RECEPTOR 9 AGONIST AND A TUMOR ANTIGEN FOR TREATING CANCER” (Dynavax Technologies Corporation, priority 2016, published 2017):
“And” between values parts separate entries of the source, which are not always exact repeats. Equal values may be shown once. Read-outs that look alike come from different tables or passages of the source. Square brackets hold non-standard residues; d marks the D form. Ends that are not written are not given here. PEG24 = NCCOCCOCCOCCOCCOCCOCCOCCOCCOCCOCCOCCOCCOCCOCCOCCOCCOCCOCCOCCOCCOCCOCCOCCOCCC(=O)O; Cha = N[C@@H](CC1CCCCC1)C(=O)O

How the values were obtained:
Format in all cases: physicochemical
[1] = Adsorption of CpG-ODN to aluminum hydroxide, quantified by UV absorbance at 260 nm; conditions: for D61-01 binding: co-adsorption with AH1 CII peptide; for % D61-04 Bound: Al(OH)3 1.0 mg
[2] = Solubilization of peptide antigens in buffers and organic solvents (visual assessment); design: key to Qualitative Solubility score: 1 = fully soluble/clarity similar to water; 2 = partially soluble; 3 = insoluble
[3] = Adsorption of peptide antigens to aluminum hydroxide, quantified by UV, amino acid analysis or RP-HPLC; conditions: RP-HPLC at 215 nm
[4] = 10 mM NaOAc, 150 mM NaCl, pH 7.0
[5] = input 0.25 mg to 1 mg aluminum hydroxide, pH 7.0
[6] = input 0.50 mg to 1 mg aluminum hydroxide, pH 7.0
[7] = input 1.0 mg to 1 mg aluminum hydroxide, pH 7.0
[8] = input 1.5 mg to 1 mg aluminum hydroxide, pH 7.0

## 5′-TCGGCGC-3′-HEG-5′-AACGTTC-3′-HEG-5′-TCGGCGC-3′ (DNA TCGGCGCAACGTTCTCGGCGC; HEG spacers, phosphorothioate linkages, chemistry not fully specified) [D61-01]
[1]; [4]
  maximum bound by 1 mg of aluminum hydroxide: 1.0 mg
[1]; 10 mM NaOAc, 150 mM NaCl, pH 7.0, Table S3-1
  D61-01 Binding efficiency: 71-100%
[1]; 2.5 mg of aluminum
  D61-01 binding: 86%
[1]; four out of five conditions
  D61-01 binding: 100%
[1]; co-adsorption with HPV16 peptide, two reactions
  D61-01 binding efficiencies: 74% and 80%
[1]; [5]
  Binding efficiency: 100%
  Bound: 0.25 mg
[1]; [6]
  Binding efficiency: 100%
  Bound: 0.50 mg
[1]; [7]
  Binding efficiency: 99%
  Bound: 0.99 mg
[1]; [8]
  Binding efficiency: 65%
  Bound: 0.97 mg

## CSGLEQLESIINFEKLTEWTSSNVMEERKIKV [OVApep]
[2]; 0.1 M sodium bicarbonate buffer, 0.1 M sodium bicarbonate, pH 8 buffer, read-out: solubility
  solubility: 2000 to 4000 µg/mL
[2]; water, PBS or sodium acetate (NaOAc) buffers
  solubility: not appreciably soluble

## [PEG24]VGALEGPRNQDWLAK[Cha]VAAWTLKAAATAYRYHLLSSVYDFFVWLSC [Triple, PEG24-VGALEGPRNQDWLAKXVAAWTLKAAATAYRYHLLSSVYDFFVWLSC wherein X = L-cyclohexylalanine]
[2]; 0.1 M sodium bicarbonate pH 8 buffer, water, PBS, sodium bicarbonate or NaOAc buffers
  solubility: not appreciably soluble
[2]; 6M guanidine hydrochloride pH 8.5 or 20% IPA/water (v/v), read-out: solubility
  solubility: 1000 to 5000 µg/mL

## 5′-TCGAACGTTCGAACGTTCGAACGTTCGAAT-3′ (DNA TCGAACGTTCGAACGTTCGAACGTTCGAAT; DNA, all phosphorothioate, methylation of C not given here) [D61-04]
[1]; [4]
  maximum bound by 1 mg of aluminum hydroxide: 1.1 mg
[1]; [5]
  Binding efficiency: 100%
  Bound: 0.25 mg
[1]; [6]
  Binding efficiency: 100%
  Bound: 0.50 mg
[1]; [7]
  Binding efficiency: 89%
  Bound: 0.89 mg
[1]; [8]
  Binding efficiency: 73%
  Bound: 1.1 mg
[1]; pH 6.5, D61-04 input 1.0 mg
  % D61-04 Bound: 92%
[1]; pH 6.5, D61-04 input 1.5 mg
  % D61-04 Bound: 78%
[1]; pH 6.5, D61-04 input 2.0 mg
  % D61-04 Bound: 63%
[1]; pH 7.0, D61-04 input 1.0 mg
  % D61-04 Bound: 91%
[1]; pH 7.0, D61-04 input 1.5 mg
  % D61-04 Bound: 73%
[1]; pH 7.0, D61-04 input 2.0 mg
  % D61-04 Bound: 61%
[1]; pH 7.5, D61-04 input 1.0 mg
  % D61-04 Bound: 92%
[1]; pH 7.5, D61-04 input 1.5 mg
  % D61-04 Bound: 74%
[1]; pH 7.5, D61-04 input 2.0 mg
  % D61-04 Bound: 60%

## HRQLQLSISSCLQQLSLLMWITQCFLPVFLAQ [NY-ESO-1142-173 OLP]
[3]; 2-Butanol
  (%) binding efficiency to aluminum hydroxide: 100%
[3]; Acetic acid
  (%) binding efficiency to aluminum hydroxide: 100%
[3]; Acetone
  (%) binding efficiency to aluminum hydroxide: 100%
[3]; Ethanol
  (%) binding efficiency to aluminum hydroxide: 100%
[3]; Formic acid
  (%) binding efficiency to aluminum hydroxide: 100%
[3]; Isopropyl alcohol
  (%) binding efficiency to aluminum hydroxide: 100%
[2]; Acetic acid
  Qualitative Solubility score: 1
  Visual Appearance: clear
[2]; Acetone
  Qualitative Solubility score: 1
  Visual Appearance: clear
[2]; Ethanol
  Qualitative Solubility score: 1
  Visual Appearance: clear
[2]; Formic acid
  Qualitative Solubility score: 1
  Visual Appearance: clear
[2]; Isoamyl alcohol
  Qualitative Solubility score: 3
  Visual Appearance: hazy
[2]; Isopropyl acetate
  Qualitative Solubility score: 3
  Visual Appearance: hazy/insoluble
[2]; Methyl acetate
  Qualitative Solubility score: 3
  Visual Appearance: hazy/insoluble
[2]; n-Butyl acetate
  Qualitative Solubility score: 3
  Visual Appearance: hazy/insoluble
[2]; six solvents diluted to 20% solvent/80% water (v/v), data not shown
  solubility after dilution of solvent: remained visually soluble
